Experimental data taken from patent publication US20080058330A1, “Compounds and Combinations Thereof for Inhibiting Beta-Amyloid Production and Methods of Use Thereof” (Roskamp Research LLC, priority 2006, published 2008).

What was measured:
7W WT APP751 CHO cells [1] = assay: Screening of NF-kB activation inhibitors, Aβ1-40 and Aβ1-42 ELISA (Example 3); type: cell-based, Chinese hamster; conditions: 24 hours (FIG. 6)
Procedure: Each compound was dissolved in DMSO. 7W WT APP751 CHO cells overexpressing APP751 were plated into 96-well culture plates in 200 μL of culture medium. Each compound from the library was added to confluent cells to a final concentration of 500 nM, 1 μM, 5 μM, 10 μM and/or 30 μM. After 24 hours of treatment, culture medium was collected and dissolved 10-fold and 2-fold for measuring the level of Aβ1-40 and Aβ1-42, respectively. Aβ1-40 and Aβ1-42 were determined using commercially available ELISAs (Biosource, CA), following the recommendations of the manufacturer.

7W WT APP751 CHO cells [2] = assay: Screening of dihydropyridine compounds (Maybridge), Aβ1-40 and Aβ1-42 ELISA (Example 2); type: cell-based, Chinese hamster; conditions: 30 μM, 24 hours (FIG. 5A, 5B)
Procedure: Dihydropyridine compounds were obtained from Maybridge (England). Each compound was dissolved in DMSO. 7W WT APP751 CHO cells overexpressing APP751 were plated into 96-well culture plates in 200 μL of culture medium. Each compound from the library was added to confluent cells to a final concentration of 30 μM. After 24 hours of treatment, culture medium was collected and dissolved 10-fold and 2-fold for measuring the level of Aβ1-40 and Aβ1-42, respectively. Aβ1-40 and Aβ1-42 were determined using commercially available ELISAs (Biosource, CA), following the recommendations of the manufacturer.

Nc1ccc2ncnc(NCCc3ccc(Oc4ccccc4)cc3)c2c1 [6-amino-4-(4-phenoxyphenylethylamino)quinazoline]
significantly decreased: concentration of Aβ1-40 compared to controls (7W WT APP751 CHO cells [1]; 500 nM) | concentration of Aβ1-42 compared to controls (7W WT APP751 CHO cells [1]; 500 nM) | concentration of total β-amyloid compared to controls (7W WT APP751 CHO cells [1]; 500 nM) | concentration of Aβ1-40 compared to controls (7W WT APP751 CHO cells [1]; 5 μM) | concentration of Aβ1-42 compared to controls (7W WT APP751 CHO cells [1]; 5 μM) | concentration of total β-amyloid compared to controls (7W WT APP751 CHO cells [1]; 5 μM)

COC(=O)C1=C(C)NC(C)=C(C(=O)OCCCN2CCC(c3ccccc3)(c3ccccc3)CC2)[C@H]1c1cccc([N+](=O)[O-])c1.Cl [(S)-(+)-niguldipine]
significantly decreased: concentration of Aβ1-40 compared to controls (7W WT APP751 CHO cells [1]; 1 μM) | concentration of Aβ1-42 compared to controls (7W WT APP751 CHO cells [1]; 1 μM) | concentration of total β-amyloid compared to controls (7W WT APP751 CHO cells [1]; 1 μM) | concentration of Aβ1-40 compared to controls (7W WT APP751 CHO cells [1]; 5 μM) | concentration of Aβ1-42 compared to controls (7W WT APP751 CHO cells [1]; 5 μM) | concentration of total β-amyloid compared to controls (7W WT APP751 CHO cells [1]; 5 μM) | concentration of Aβ1-40 compared to controls (7W WT APP751 CHO cells [1]; 30 μM) | concentration of Aβ1-42 compared to controls (7W WT APP751 CHO cells [1]; 30 μM) | concentration of total β-amyloid compared to controls (7W WT APP751 CHO cells [1]; 30 μM)

CCOC(=O)C1=C(C)NC(C)=C(C(=O)OCC)C1c1ccc(Cl)cc1 [BTB 14328, diethyl 4-(4-chlorophenyl)-2,6-dimethyl-1,4-dihydropyridine-3,5-dicarboxylate]
significantly decreased: concentration of Aβ1-40 compared to controls (7W WT APP751 CHO cells [2]) | concentration of Aβ1-42 compared to controls (7W WT APP751 CHO cells [2]) | concentration of total β-amyloid (Aβ1-40+Aβ1-42) compared to controls (7W WT APP751 CHO cells [2])

CCOC(=O)C1=C(C)NC(C)=C(C(=O)OCC)C1c1ccc(-c2cc(C(F)(F)F)cc(C(F)(F)F)c2)o1 [CD 04170, diethyl 4-{5-[3,5-di(trifluoromethyl)phenyl]-2-furyl}-2,6-dimethyl-1,4-dihydro-pyridine-3,5-dicarboxylate]
significantly decreased: concentration of Aβ1-40 compared to controls (7W WT APP751 CHO cells [2]) | concentration of Aβ1-42 compared to controls (7W WT APP751 CHO cells [2]) | concentration of total β-amyloid (Aβ1-40+Aβ1-42) compared to controls (7W WT APP751 CHO cells [2])

O=C1C=C(c2ccccc2)CN(C2CCCCC2)C1=O [HTS 01512, 1-cyclohexyl-5-phenyl-1,6-dihydro-2,3-pyridinedione]
significantly decreased: concentration of Aβ1-40 compared to controls (7W WT APP751 CHO cells [2]) | concentration of Aβ1-42 compared to controls (7W WT APP751 CHO cells [2]) | concentration of total β-amyloid (Aβ1-40+Aβ1-42) compared to controls (7W WT APP751 CHO cells [2])

N#Cc1c(-c2cn(-c3ccccc3)nc2-c2ccccc2)cc(-c2ccccc2)[nH]c1=O [HTS 07578, 4-(1,3-diphenyl-1H-pyrazol-4-yl)-2-oxo-6-phenyl-1,2-dihydro-3-pyridinecarbonitrile]
significantly decreased: concentration of Aβ1-40 compared to controls (7W WT APP751 CHO cells [2]) | concentration of Aβ1-42 compared to controls (7W WT APP751 CHO cells [2]) | concentration of total β-amyloid (Aβ1-40+Aβ1-42) compared to controls (7W WT APP751 CHO cells [2])

N#Cc1c(-c2cccs2)cc(-c2ccccc2)[nH]c1=O [HTS 10306, 2-oxo-6-phenyl-4-(2-thienyl)-1,2-dihydro-3-pyridinecarbonitrile]
significantly decreased: concentration of Aβ1-40 compared to controls (7W WT APP751 CHO cells [2]) | concentration of Aβ1-42 compared to controls (7W WT APP751 CHO cells [2]) | concentration of total β-amyloid (Aβ1-40+Aβ1-42) compared to controls (7W WT APP751 CHO cells [2])

NC(=O)Nc1sc(-c2ccc(F)cc2)cc1C(N)=O [IKK-2 Inhibitor IV]
significantly decreased: concentration of Aβ1-40 compared to controls (7W WT APP751 CHO cells [1]; 500 nM) | concentration of Aβ1-42 compared to controls (7W WT APP751 CHO cells [1]; 500 nM) | concentration of total β-amyloid compared to controls (7W WT APP751 CHO cells [1]; 500 nM) | concentration of Aβ1-40 compared to controls (7W WT APP751 CHO cells [1]; 5 μM) | concentration of Aβ1-42 compared to controls (7W WT APP751 CHO cells [1]; 5 μM) | concentration of total β-amyloid compared to controls (7W WT APP751 CHO cells [1]; 5 μM)

CCOC(=O)C1=C(C)NC(C)=C(C(=O)OCC)C1c1ccc(Br)cc1 [JFD 01209, diethyl 4-(4-bromophenyl)-2,6-dimethyl-1,4-dihydropyridine-3,5-dicarboxylate]
significantly decreased: concentration of Aβ1-40 compared to controls (7W WT APP751 CHO cells [2]) | concentration of Aβ1-42 compared to controls (7W WT APP751 CHO cells [2]) | concentration of total β-amyloid (Aβ1-40+Aβ1-42) compared to controls (7W WT APP751 CHO cells [2])

CCOC(=O)C1=C(C)NC(C)=C(C(=O)OCC)C1c1ccc([N+](=O)[O-])cc1 [JFD 03266, diethyl 2,6-dimethyl-4-(4-nitrophenyl)-1,4-dihydropyridine-3,5-dicarboxylate]
significantly decreased: concentration of Aβ1-40 compared to controls (7W WT APP751 CHO cells [2]) | concentration of total β-amyloid (Aβ1-40+Aβ1-42) compared to controls (7W WT APP751 CHO cells [2])

CCOC(=O)C1=C(C)NC(C)=C(C(=O)OCC)C1c1ccc(C)cc1 [JFD 03282, diethyl 2,6-dimethyl-4-(4-methylphenyl)-1,4-dihydropyridine-3,5-dicarboxylate]
significantly decreased: concentration of Aβ1-40 compared to controls (7W WT APP751 CHO cells [2]) | concentration of Aβ1-42 compared to controls (7W WT APP751 CHO cells [2]) | concentration of total β-amyloid (Aβ1-40+Aβ1-42) compared to controls (7W WT APP751 CHO cells [2])

CC1=C(C#N)C(c2ccc(Cl)c(Cl)c2)C(C#N)=C(C)N1 [JFD 03292, 4-(3,4-dichlorophenyl)-2,6-dimethyl-1,4-dihydropyridine-3,5-dicarbonitrile]
significantly decreased: concentration of Aβ1-40 compared to controls (7W WT APP751 CHO cells [2]) | concentration of total β-amyloid (Aβ1-40+Aβ1-42) compared to controls (7W WT APP751 CHO cells [2])

COC(=O)C1=C(C)NC(C)=C(C(=O)OC)C1c1ccc(Cl)c(Cl)c1 [JFD 03293, dimethyl 4-(3,4-dichlorophenyl)-2,6-dimethyl-1,4-dihydropyridine-3,5-dicarboxylate]
significantly decreased: concentration of Aβ1-40 compared to controls (7W WT APP751 CHO cells [2]) | concentration of Aβ1-42 compared to controls (7W WT APP751 CHO cells [2]) | concentration of total β-amyloid (Aβ1-40+Aβ1-42) compared to controls (7W WT APP751 CHO cells [2])

CCOC(=O)C1=C(C)NC(C)=C(C(=O)OCC)C1c1ccc(Cl)c(Cl)c1 [JFD 03294, diethyl 4-(3,4-dichlorophenyl)-2,6-dimethyl-1,4-dihydropyridine-3,5-dicarboxylate]
significantly decreased: concentration of Aβ1-40 compared to controls (7W WT APP751 CHO cells [2]) | concentration of Aβ1-42 compared to controls (7W WT APP751 CHO cells [2]) | concentration of total β-amyloid (Aβ1-40+Aβ1-42) compared to controls (7W WT APP751 CHO cells [2])

CCOC(=O)C1=C(C)NC(C)=C(C(=O)OCC)C1c1ccccc1Cl [JFD 03305, diethyl 4-(2-chlorophenyl)-2,6-dimethyl-1,4-dihydropyridine-3,5-dicarboxylate]
significantly decreased: concentration of Aβ1-40 compared to controls (7W WT APP751 CHO cells [2]) | concentration of Aβ1-42 compared to controls (7W WT APP751 CHO cells [2]) | concentration of total β-amyloid (Aβ1-40+Aβ1-42) compared to controls (7W WT APP751 CHO cells [2])

COC(=O)C1=C(C)NC(C)=C(C(=O)OCCCN2CCC(c3ccccc3)(c3ccccc3)CC2)[C@@H]1c1cccc([N+](=O)[O-])c1.Cl [R-niguldipine]
significantly decreased: concentration of Aβ1-40 compared to controls (7W WT APP751 CHO cells [1]; 1 μM) | concentration of Aβ1-42 compared to controls (7W WT APP751 CHO cells [1]; 1 μM) | concentration of total β-amyloid compared to controls (7W WT APP751 CHO cells [1]; 1 μM) | concentration of Aβ1-40 compared to controls (7W WT APP751 CHO cells [1]; 5 μM) | concentration of Aβ1-42 compared to controls (7W WT APP751 CHO cells [1]; 5 μM) | concentration of total β-amyloid compared to controls (7W WT APP751 CHO cells [1]; 5 μM) | concentration of Aβ1-40 compared to controls (7W WT APP751 CHO cells [1]; 30 μM) | concentration of Aβ1-42 compared to controls (7W WT APP751 CHO cells [1]; 30 μM) | concentration of total β-amyloid compared to controls (7W WT APP751 CHO cells [1]; 30 μM)

C[C@@H]1CC[C@H]2[C@@H](C)C(=O)O[C@@H]3O[C@@]4(C)CC[C@@H]1[C@]32OO4 [artemisinin]
significantly decreased: concentration of Aβ1-40 compared to controls (7W WT APP751 CHO cells [1]; 1 μM) | concentration of Aβ1-42 compared to controls (7W WT APP751 CHO cells [1]; 1 μM) | concentration of total β-amyloid compared to controls (7W WT APP751 CHO cells [1]; 1 μM) | concentration of Aβ1-40 compared to controls (7W WT APP751 CHO cells [1]; 30 μM) | concentration of Aβ1-42 compared to controls (7W WT APP751 CHO cells [1]; 30 μM) | concentration of total β-amyloid compared to controls (7W WT APP751 CHO cells [1]; 30 μM)

CC1=C(O)C(=O)C=C2C1=CC=C1[C@@]2(C)CC[C@@]2(C)[C@@H]3C[C@](C)(C(=O)O)CC[C@]3(C)CC[C@]12C [celastrol]
significantly decreased: concentration of Aβ1-40 compared to controls (7W WT APP751 CHO cells [1]; 500 nM) | concentration of Aβ1-42 compared to controls (7W WT APP751 CHO cells [1]; 500 nM) | concentration of total β-amyloid compared to controls (7W WT APP751 CHO cells [1]; 500 nM) | concentration of Aβ1-40 compared to controls (7W WT APP751 CHO cells [1]; 5 μM) | concentration of Aβ1-42 compared to controls (7W WT APP751 CHO cells [1]; 5 μM) | concentration of total β-amyloid compared to controls (7W WT APP751 CHO cells [1]; 5 μM)

C=C1C(=O)O[C@@H]2C[C@@]3(C)CCCC(=C)[C@@H]3C[C@H]12 [isohelenin]
significantly decreased: concentration of Aβ1-40 compared to controls (7W WT APP751 CHO cells [1]; 5 μM) | concentration of Aβ1-42 compared to controls (7W WT APP751 CHO cells [1]; 5 μM) | concentration of total β-amyloid compared to controls (7W WT APP751 CHO cells [1]; 5 μM) | concentration of Aβ1-40 compared to controls (7W WT APP751 CHO cells [1]; 10 μM) | concentration of Aβ1-42 compared to controls (7W WT APP751 CHO cells [1]; 10 μM) | concentration of total β-amyloid compared to controls (7W WT APP751 CHO cells [1]; 10 μM)

C=C1C(=O)[C@@]23[C@H](O)C[C@@H]4C(C)(C)CC[C@H](O)[C@@]4(CO)[C@@H]2CC[C@@H]1[C@H]3O [kamebakaurin]
significantly decreased: concentration of Aβ1-40 compared to controls (7W WT APP751 CHO cells [1]; 10 μM) | concentration of Aβ1-42 compared to controls (7W WT APP751 CHO cells [1]; 10 μM) | concentration of total β-amyloid compared to controls (7W WT APP751 CHO cells [1]; 10 μM) | concentration of Aβ1-40 compared to controls (7W WT APP751 CHO cells [1]; 30 μM) | concentration of Aβ1-42 compared to controls (7W WT APP751 CHO cells [1]; 30 μM) | concentration of total β-amyloid compared to controls (7W WT APP751 CHO cells [1]; 30 μM)
